According to PubChem BioAssay (NCI):
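Test compounds were applied to cells in 96-well plates for 48 hours at 5 doses. TGI marks complete inhibition of growth.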

Columns and labels:
Assay in all cases: NCI tumour cell line growth inhibition, 48 h
786-0 renal = system: 786-0 renal
A498 renal = system: A498 renal
A549 NSCLC = system: A549 NSCLC
ACHN renal = system: ACHN renal
BT-549 breast = system: BT-549 breast
CAKI-1 renal = system: CAKI-1 renal
CCRF-CEM leukemia = system: CCRF-CEM leukemia
COLO 205 colon = system: COLO 205 colon
DU-145 prostate = system: DU-145 prostate
EKVX NSCLC = system: EKVX NSCLC
HCC-2998 colon = system: HCC-2998 colon
HCT-116 colon = system: HCT-116 colon
HCT-15 colon = system: HCT-15 colon
HL-60(TB) leukemia = system: HL-60(TB) leukemia
HOP-62 NSCLC = system: HOP-62 NSCLC
HOP-92 NSCLC = system: HOP-92 NSCLC
HS 578T breast = system: HS 578T breast
HT29 colon = system: HT29 colon
IGROV1 ovarian = system: IGROV1 ovarian
K-562 leukemia = system: K-562 leukemia
KM12 colon = system: KM12 colon
LOX IMVI melanoma = system: LOX IMVI melanoma
M14 melanoma = system: M14 melanoma
MALME-3M melanoma = system: MALME-3M melanoma
MCF7 breast = system: MCF7 breast
MDA-MB-231 breast = system: MDA-MB-231 breast
MDA-MB-435 = system: MDA-MB-435
MDA-N = system: MDA-N
MOLT-4 leukemia = system: MOLT-4 leukemia
NCI-H226 lung = system: NCI-H226 lung
NCI-H23 lung = system: NCI-H23 lung
NCI-H460 lung = system: NCI-H460 lung
NCI-H522 lung = system: NCI-H522 lung
NCI/ADR-RES ovarian = system: NCI/ADR-RES ovarian
OVCAR-3 ovarian = system: OVCAR-3 ovarian
OVCAR-4 ovarian = system: OVCAR-4 ovarian
OVCAR-5 ovarian = system: OVCAR-5 ovarian
OVCAR-8 ovarian = system: OVCAR-8 ovarian
PC-3 prostate = system: PC-3 prostate
RPMI-8226 leukemia = system: RPMI-8226 leukemia
SF-268 CNS = system: SF-268 CNS
SF-295 CNS = system: SF-295 CNS
SF-539 CNS = system: SF-539 CNS
SK-MEL-28 melanoma = system: SK-MEL-28 melanoma
SK-MEL-5 melanoma = system: SK-MEL-5 melanoma
SK-OV-3 ovarian = system: SK-OV-3 ovarian
SN12C renal = system: SN12C renal
SNB-19 CNS = system: SNB-19 CNS
SNB-75 CNS = system: SNB-75 CNS
SW-620 colon = system: SW-620 colon
TK-10 renal = system: TK-10 renal
U251 CNS = system: U251 CNS
UACC-257 melanoma = system: UACC-257 melanoma
UACC-62 melanoma = system: UACC-62 melanoma
SK-MEL-2 melanoma = system: SK-MEL-2 melanoma
T-47D breast = system: T-47D breast
UO-31 renal = system: UO-31 renal

CC(C)=C[C@@H]1C[C@H](C)c2c(O)cc(C)c3c2C1=C(C)C(=O)C3=O
TGI (786-0 renal): 36.1 µM
TGI (A498 renal): 37.4 µM
TGI (A549 NSCLC): 21.7 µM
TGI (ACHN renal): 34.3 µM
TGI (BT-549 breast): 28.1 µM
TGI (CAKI-1 renal): 30.2 µM
TGI (CCRF-CEM leukemia): 47.2 µM
TGI (COLO 205 colon): 32.6 µM
TGI (DU-145 prostate): 28.6 µM
TGI (EKVX NSCLC): 33 µM
TGI (HCC-2998 colon): 54.3 µM
TGI (HCT-116 colon): 28.5 µM
TGI (HCT-15 colon): 29.4 µM
TGI (HL-60(TB) leukemia): 44.4 µM
TGI (HOP-62 NSCLC): 35.8 µM
TGI (HOP-92 NSCLC): 26.9 µM
TGI (HS 578T breast): 41.8 µM
TGI (HT29 colon): 40.6 µM
TGI (IGROV1 ovarian): 35.2 µM
TGI (K-562 leukemia): 40.1 µM
TGI (KM12 colon): 31.3 µM
TGI (LOX IMVI melanoma): 33.3 µM
TGI (M14 melanoma): 27 µM
TGI (MALME-3M melanoma): 29.4 µM
TGI (MCF7 breast): 65.8 µM
TGI (MDA-MB-231 breast): 33.9 µM
TGI (MDA-MB-435): 29.4 µM
TGI (MDA-N): 33.7 µM
TGI (MOLT-4 leukemia): > 100 µM
TGI (NCI-H226 lung): 33 µM
TGI (NCI-H23 lung): 32.5 µM
TGI (NCI-H460 lung): 48.8 µM
TGI (NCI-H522 lung): 28.8 µM
TGI (NCI/ADR-RES ovarian): 49.6 µM
TGI (OVCAR-3 ovarian): 32.1 µM
TGI (OVCAR-4 ovarian): 23.4 µM
TGI (OVCAR-5 ovarian): 62.2 µM
TGI (OVCAR-8 ovarian): 35.2 µM
TGI (PC-3 prostate): 23.6 µM
TGI (RPMI-8226 leukemia): 41.6 µM
TGI (SF-268 CNS): 31.4 µM
TGI (SF-295 CNS): 30.4 µM
TGI (SF-539 CNS): 32.3 µM
TGI (SK-MEL-28 melanoma): 29.8 µM
TGI (SK-MEL-5 melanoma): 26.5 µM
TGI (SK-OV-3 ovarian): 30.9 µM
TGI (SN12C renal): 28.3 µM
TGI (SNB-19 CNS): 29.1 µM
TGI (SNB-75 CNS): 31.4 µM
TGI (SW-620 colon): 32.4 µM
TGI (TK-10 renal): 45.9 µM
TGI (U251 CNS): 26.7 µM
TGI (UACC-257 melanoma): 37.5 µM
TGI (UACC-62 melanoma): 29.6 µM

O=C(/C=C\c1ccccc1)Oc1ccc(/C=C2\CCCCC2=O)cc1
TGI (786-0 renal): > 100 µM
TGI (A498 renal): > 100 µM
TGI (A549 NSCLC): > 100 µM
TGI (ACHN renal): > 100 µM
TGI (CAKI-1 renal): 97.9 µM
TGI (CCRF-CEM leukemia): 27.2 µM
TGI (COLO 205 colon): 62.9 µM
TGI (DU-145 prostate): > 100 µM
TGI (EKVX NSCLC): > 100 µM
TGI (HCC-2998 colon): > 100 µM
TGI (HCT-116 colon): > 100 µM
TGI (HCT-15 colon): 79.7 µM
TGI (HL-60(TB) leukemia): 35.2 µM
TGI (HOP-62 NSCLC): > 100 µM
TGI (HOP-92 NSCLC): > 100 µM
TGI (HS 578T breast): > 100 µM
TGI (HT29 colon): 31.7 µM
TGI (IGROV1 ovarian): > 100 µM
TGI (KM12 colon): > 100 µM
TGI (LOX IMVI melanoma): > 100 µM
TGI (M14 melanoma): > 100 µM
TGI (MALME-3M melanoma): > 100 µM
TGI (MCF7 breast): > 100 µM
TGI (MDA-MB-231 breast): > 100 µM
TGI (MDA-MB-435): 84.6 µM
TGI (MDA-N): > 100 µM
TGI (MOLT-4 leukemia): 16.5 µM
TGI (NCI-H23 lung): > 100 µM
TGI (NCI-H460 lung): > 100 µM
TGI (NCI-H522 lung): > 100 µM
TGI (OVCAR-3 ovarian): > 100 µM
TGI (OVCAR-4 ovarian): > 100 µM
TGI (OVCAR-5 ovarian): > 100 µM
TGI (OVCAR-8 ovarian): > 100 µM
TGI (PC-3 prostate): > 100 µM
TGI (RPMI-8226 leukemia): 50.6 µM
TGI (SF-268 CNS): > 100 µM
TGI (SF-295 CNS): > 100 µM
TGI (SF-539 CNS): > 100 µM
TGI (SK-MEL-2 melanoma): > 100 µM
TGI (SK-MEL-28 melanoma): > 100 µM
TGI (SK-MEL-5 melanoma): > 100 µM
TGI (SN12C renal): > 100 µM
TGI (SNB-19 CNS): > 100 µM
TGI (SNB-75 CNS): > 100 µM
TGI (SW-620 colon): > 100 µM
TGI (T-47D breast): > 100 µM
TGI (TK-10 renal): 43.2 µM
TGI (U251 CNS): > 100 µM
TGI (UACC-257 melanoma): 87.3 µM
TGI (UACC-62 melanoma): 0.136 µM
TGI (UO-31 renal): > 100 µM
